What was measured:
[1] = system: bone marrow mononuclear cells of mice; experiment: Induction of RA activity in mouse bone marrow (QPCR of RA target genes); assay type: in vivo; settings: intravenous 40 μg/kg once per day for two days, versus vehicle
Procedure: Human and mouse bone marrow stromal cells express CYP26 enzymes and Cyp26B1 is highly inducible by RA in these cells. This experiment tests whether exposure of bone marrow to a CYP26 inhibitor is sufficient to raise RA levels in the bone marrow and induce RA-target genes. Mice (8-12 week old) were given intravenous injections (tall vein) on two consecutive days (once per day) of CYP26 inhibitor compound dissolved in 0.9% sodium chloride/0.1% DMSO. Animals were given a dose of 40 μg/kg of inhibitor, or an equal volume of vehicle alone. The morning after the second injection, animals were sacrificed, and bone marrow mononuclear cells were harvested from femurs using Lympholyte-mammal reagent (available from Cedarlane, Burlington, Canada). RNA was then extracted from isolated cells, and RA target gene expression assessed by qPCR.

MV4-11 cells = experiment: Leukemia cell apoptosis (FITC-Annexin V), MV4-11 cells; assay type: cell-based, human; settings: 0.1 μM RA plus 1 μM compound, stromal cells present, 48 hours
Procedure: RA can also induce apoptosis is a variety of cell types, including AML cells. This experiment tests CYP26 inhibitor compounds for their ability to rescue RA-induced apoptosis in the presence of bone marrow stromal cells. For these experiments MV4-11 AML cells are plated as above, in the presence and absence of stromal monolayers. Cells are then treated for 48 hours with RA (0.1 μM). After the treatment period, cells are stained with a FITC-labeled annexin V antibody (available from Thermofisher Scientific), which binds to the surface of apoptotic cells. Cells are then sorted by FACS in a as above and data are expressed as percentage of annexin V^+ (apoptotic) cells.

kasumi-1 human AML cells = experiment: CD34+CD38- LSC analysis by FACS, Kasumi-1 cells with or without OP9 stroma; assay type: cell-based; settings: 1 μM RA plus compound, OP9 stroma present, 72 hours
Procedure: Many human non-APL AML cell lines are sensitive to RA-induced differentiation. However, co-culture of leukemic cells with bone marrow stromal cells can block this effect of RA. This assay tests the ability of CYP26 inhibitor compounds to overcome the protective effect that stromal cells have on leukemic cell differentiation. For these experiments, OP9 mouse bone marrow stromal cells are grown MEM-α containing 20% FBS, in 24 well plates until a cell monolayer is formed. OP9 cells are then irradiated (15Gy) using a GammaCell 20 cesium-137 source (located at Queen's University) in order to induce growth arrest. Leukemic cells are then added to the irradiated monolayers, or control wells without OP9 cells. AML cell lines (150,000 cells) are then plated onto OP9 monolayers in their appropriated growth medium; THP-1 RPMI-1640 medium containing 10% FBS; MDSL, RPMI-1640 medium containing 10% FBS and 10 ng/ml recombinant human IL-3; Kasumi-1, RPMI-1640 containing 20% FBS; MV4-11, IMDM containing 10% FBS. […] Stained cells are then sorted by FACS in a BD FACS Aria 3 flow cytometer (Queen's University) using FACS Diva software, to assess percentage of cells that are CD11b^+, the relative expression levels of CD11b (by median fluorescence intensity—MFI), or percentage of CD34^+CD38^− leukemic stem cells (LSCs). […]

[2] = system: RA target genes in primary human bone marrow cells; experiment: RA target gene expression in primary human bone marrow stromal cells; assay type: cell-based; settings: co-treatment with RA

SMILES: CC(C)(C)c1cccc(-c2cc3cc(/C=C/C(=O)O)ccc3[nH]2)c1 [Compound 026]
- Expression of Cyp26a1 and Crabp2 in bone marrow mononuclear cells [1]: both induced
- RA-induced apoptosis (Annexin V positive cells) (MV4-11 cells): rescued by the addition of compound 026
- Number of CD34+CD38- cells (LSCs) (kasumi-1 human AML cells): restored the ability of RA to reduce the number of
- Expression of RA target genes in response to RA, co-treatment [2]: greatly enhanced and prolonged expression of RA target genes

From US11358933B2, “Compounds and methods for inhibiting CYP26 enzymes” (Queen's University at Kingston, priority 2017, dated 2022)
